Measurements taken from PMC12080252, “Daphnia magna as an Alternative Model for (Simultaneous) Bioaccumulation and Chronic Toxicity Assessment—Controlled Exposure Study Indicates High Hazard of Heterocyclic PAHs” (Environmental Science & Technology, 2025).
“And” between values parts separate entries of the source, which are not always exact repeats. Identical values can stand only once. Like-named read-outs stand apart in the source and are kept apart here.

Key:
D. magna [1] = settings: Table S1; footnote not given; cited from earlier work
Daphnia magna = assay type: in vivo; settings: for % inhibition, avr.: average of vessels; for #dead offspring per mother / #live offspring per mother: per vessel; for appearance of mother: vessel 3; for body burden at the end of the depuration phase: 12-day depuration; for log BAF*L5%: 21 days of exposure, assuming steady-state; for % reproductive inhibition: Fig. S10; for body burden: after 21-day exposure; for removed fraction of accumulated body burden: after 12 days of depuration
Protocol: To maximize data output, we combined chronic toxicity and bioaccumulation tests in an integrated approach where the chronic toxicity test also served as an uptake phase followed by a depuration/recovery phase (Table S3). This simultaneous bioaccumulation/chronic toxicity test was performed for BNT and DNF. Of the 10 replicates per exposure level, five animals were sampled on day 21 to measure accumulated chemical concentrations and wet weights. The remaining five were transferred to clean media without test chemicals for a 12-day depuration phase under conditions identical with the uptake phase except for the absence of test chemicals. Juvenile counts were recorded daily. At the end of the depuration period, five Daphnia were collected, weighed, and analyzed for body burden (i.e., concentration of test chemical per unit of body weight) using the extraction procedure described in Section 2.7.
For quantification of body burdens, 5 daphnids were thawed, homogenized in 5 mL Milli-Q water (IKA T-25 digital Ultra-TURRAX) and extracted twice with 2 mL of hexane. The extracts were combined, dried with Na2SO4, concentrated under a nitrogen stream, and spiked with internal standard.

D. magna [2] = settings: cited from earlier work
[3] = after 11.96 µg/L, depuration phase day 1
[4] = after 11.96 µg/L, depuration phase day 9
[5] = after DNF 1.43 µg/L exposure, 12-day depuration phase

## c1ccc2c(c1)ccc1[nH]c3ccccc3c12 [BCRB, 7H-benzo[c]carbazole]
D. magna [1]
  lowest PNEC*: 0.017 µg/L

## c1ccc2c(c1)ccc1sc3ccccc3c12 [BNT, benzo[b]naphtho[1,2-d]thiophene]
Daphnia magna; 11.96 µg/L, 21-day exposure
  %offspring mortality: 28.01%
Daphnia magna; 11.96 µg/L, all vessels, exposure day 9
  #total live offspring: 32
Daphnia magna; 11.96 µg/L, all vessels, exposure day 12
  #total live offspring: 46
Daphnia magna; 11.96 µg/L, all vessels, exposure day 13
  #total live offspring: 42
Daphnia magna; 11.96 µg/L, all vessels, exposure day 14
  #total live offspring: 15
Daphnia magna; 11.96 µg/L, all vessels, exposure day 15
  #total live offspring: 0
Daphnia magna; 11.96 µg/L, all vessels, exposure day 16
  #total live offspring: 77
Daphnia magna; 11.96 µg/L, all vessels, exposure day 19
  #total live offspring: 56
Daphnia magna; 11.96 µg/L, all vessels, exposure day 20
  #total live offspring: 46
Daphnia magna; 11.96 µg/L, all vessels, exposure day 21
  #total live offspring: 20
Daphnia magna; 11.96 µg/L, all vessels, whole 21-day exposure
  #total live offspring: 329
Daphnia magna; 11.96 µg/L, cumulative, exposure day 9
  average increase of live offspring: 3.2
Daphnia magna; 11.96 µg/L, cumulative, exposure day 12
  average increase of live offspring: 8
Daphnia magna; 11.96 µg/L, cumulative, exposure day 13
  average increase of live offspring: 12
Daphnia magna; 11.96 µg/L, cumulative, exposure day 14
  average increase of live offspring: 14
Daphnia magna; 11.96 µg/L, cumulative, exposure day 15
  average increase of live offspring: 14
Daphnia magna; 11.96 µg/L, cumulative, exposure day 16
  average increase of live offspring: 23
Daphnia magna; 11.96 µg/L, cumulative, exposure day 19
  average increase of live offspring: 29
Daphnia magna; 11.96 µg/L, cumulative, exposure day 20
  average increase of live offspring: 34
Daphnia magna; 11.96 µg/L, cumulative, exposure day 21
  average increase of live offspring: 36
Daphnia magna; 11.96 µg/L, live offspring, 21-day exposure
  % inhibition, avr.: 49.3%
Daphnia magna; 11.96 µg/L, per mother, 21-day exposure
  #average live offspring: 36
Daphnia magna; 11.96 µg/L, exposure day 15
  #dead offspring per mother: 0
  #live offspring per mother: 0
Daphnia magna; 11.96 µg/L, exposure day 5
  appearance of mother: very small/pale
Daphnia magna; 11.96 µg/L, exposure day 7
  appearance of mother: very small
Daphnia magna; 11.96 µg/L, vessel 4, exposure day 13
  status of mother: dead
Daphnia magna
  body burden at the end of the depuration phase: below the LOQ
  log BAF*L5%: 4.58 ± 0.05 and 4.58
  removed fraction of accumulated body burden: ≥ 99.98%
Daphnia magna; BNT 4.3 µg/L, entire test (days 1-33)
  % reproductive inhibition: 20%
Daphnia magna; BNT 4.3 µg/L, only depuration phase (days 21-33)
  % reproductive inhibition: 6%
Daphnia magna; BNT 4.3 µg/L, only uptake phase (days 0-21)
  % reproductive inhibition: 36%
Daphnia magna; BNT 4.72 µg/L, 21-day exposure
  % inhibition, avr.: 35.5%
Daphnia magna; BNT 12 µg/L, entire test (days 1-33)
  % reproductive inhibition: 32%
Daphnia magna; BNT 12 µg/L, only depuration phase (days 21-33)
  % reproductive inhibition: 15%
Daphnia magna; BNT 12 µg/L, only uptake phase (days 0-21)
  % reproductive inhibition: 49%
Daphnia magna; after 11.96 µg/L, 12-day depuration phase
  %offspring mortality: 3.94%
Daphnia magna; after 11.96 µg/L, all vessels, depuration phase day 1
  #total live offspring: 0
Daphnia magna; after 11.96 µg/L, all vessels, depuration phase day 2
  #total live offspring: 61
Daphnia magna; after 11.96 µg/L, all vessels, depuration phase day 5
  #total live offspring: 35
Daphnia magna; after 11.96 µg/L, all vessels, depuration phase day 6
  #total live offspring: 63
Daphnia magna; after 11.96 µg/L, all vessels, depuration phase day 7
  #total live offspring: 37
Daphnia magna; after 11.96 µg/L, all vessels, depuration phase day 8
  #total live offspring: 1
Daphnia magna; after 11.96 µg/L, all vessels, depuration phase day 9
  #total live offspring: 0
Daphnia magna; after 11.96 µg/L, all vessels, depuration phase day 12
  #total live offspring: 120
Daphnia magna; after 11.96 µg/L, all vessels, whole 12-day depuration phase
  #total live offspring: 317
Daphnia magna; after 11.96 µg/L, cumulative since exposure start, depuration phase day 1
  average increase of live offspring: 36
Daphnia magna; after 11.96 µg/L, cumulative since exposure start, depuration phase day 2
  average increase of live offspring: 48
Daphnia magna; after 11.96 µg/L, cumulative since exposure start, depuration phase day 5
  average increase of live offspring: 55
Daphnia magna; after 11.96 µg/L, cumulative since exposure start, depuration phase day 6
  average increase of live offspring: 68
Daphnia magna; after 11.96 µg/L, cumulative since exposure start, depuration phase day 7
  average increase of live offspring: 75
Daphnia magna; after 11.96 µg/L, cumulative since exposure start, depuration phase day 8
  average increase of live offspring: 76
Daphnia magna; after 11.96 µg/L, cumulative since exposure start, depuration phase day 9
  average increase of live offspring: 76
Daphnia magna; after 11.96 µg/L, cumulative since exposure start, depuration phase day 12
  average increase of live offspring: 100
Daphnia magna; after 11.96 µg/L, per mother, 12-day depuration phase
  #average live offspring: 63
Daphnia magna; [3]
  #dead offspring per mother: 0
  #live offspring per mother: 0
Daphnia magna; after 11.96 µg/L, depuration phase day 8
  #dead offspring per mother: 0
Daphnia magna; [4]
  #dead offspring per mother: 0
  #live offspring per mother: 0
Daphnia magna; CW = 4.7 μg L^–1
  body burden: 50 mg kg^–1
Daphnia magna; CW = 12 μg L^–1
  body burden: 150 mg kg^–1 wet weight
D. magna [2]; acute test, at water solubility
  effect on D. magna immobilization: 35%

## c1ccc2c(c1)ccc1oc3ccc4ccccc4c3c12 [DNF, dinaphtho[2,1-b:1′,2′-d]furan]
Daphnia magna
  body burden at the end of the depuration phase: below the LOQ
  log BAF*L5%: 4.20
  removed fraction of accumulated body burden: at least 99.57%
Daphnia magna; DNF 1.43 µg/L, entire test (days 1-33)
  % reproductive inhibition: 35%
Daphnia magna; DNF 1.43 µg/L, only depuration phase (days 21-33)
  % reproductive inhibition: 14%
Daphnia magna; DNF 1.43 µg/L, only uptake phase (days 0-21)
  % reproductive inhibition: 57%
Daphnia magna; DNF 1.43 µg/L, 21-day exposure
  %offspring mortality: 42.26%
  % inhibition, avr.: 57.5%
Daphnia magna; DNF 1.43 µg/L, 21-day exposure, per surviving mother
  #average live offspring: 31
Daphnia magna; DNF 1.43 µg/L, 21-day exposure, sum of all vessels
  #total live offspring: 276
Daphnia magna; CW = 1.4 μg L^–1
  body burden: 6.9 mg kg^–1
Daphnia magna; [5]
  #average live offspring (depuration phase): 64
  %offspring mortality (depuration phase): 3.38%
Daphnia magna; after DNF 1.43 µg/L exposure, 12-day depuration phase, sum of all vessels
  #total live offspring (depuration phase): 257
Daphnia magna; after DNF 1.43 µg/L exposure, vessel 8, depuration day 3
  observation of mother animal (depuration phase): dead
D. magna [2]; controlled exposure conditions
  acute effects on D. magna immobilization: no effects were observed
